Test results reported in patent US4808605A, “Tetrahydronaphthalene derivatives as calcium antagonists” (Hoffmann-La Roche Inc., priority 1986, dated 1989).

Key:
[1] = biological target: T1, ^3 H-desmethoxyverapamil binding, partially-cleaned membranes of guinea pig heart (Cavia porcellus, UniProt O35505); experiment: ^3 H-Desmethoxyverapamil binding determinations (Test A); conditions: half-maximum inhibition of specific ^3 H-desmethoxyverapamil binding; 2.5 nM; 120 minutes at 37° C.
T1 construct: partially-cleaned membranes of guinea pig heart; from tissue; host or cells: guinea pig heart, partially-cleaned membranes
Protocol: A. ^3 H-Desmethoxyverapamil binding determinations:
The determination is carried out on partially-cleaned membranes of guinea pig heart. […] The incubation lasts 120 minutes at 37° C. and is stopped by dilution with the incubation buffer; a filtration is subsequently carried out. The filter-bound radioactivity is measured with a scintillation counter. Specific binding (i.e. receptor-bound) is defined as the difference between total and unspecific-bound radioactivity. The unspecific binding is determined in the presence of an excess of non-radioactive verapamil (10 μM).
The activity (potency) of a compound in this test is defined by the IC50 value. The IC50 is the substance concentration (in mol/l) which produces a half-maximum inhibition of the specific ^3 H-desmethoxyverapamil binding. This value is extrapolated from a concentration-binding curve.

narcotized dog = experiment: Haemodynamic parameters in the narcotized dog (Test C); assay type: in vivo; conditions: % maximum variation from initial value; for BP Δ %: blood pressure; for CBF Δ %: coronary blood flow; for HR Δ %: heart rate; for dp/dt Δ %: rate of increase in left ventricular pressure
Protocol: C. […] The values are given as the % maximum variation from the initial value (Δ %) and the duration of this variation (t) per dosage administered. There is thus obtained not only an overall picture of the activity of the substance, but also an estimation as to the potential selectivity for a specific part of the circulatory system in the entire organism. After the administration of an anaesthetic, the dog is intubated and respired artificially. Blood pH, pC2 O , pO2 and haemoglobin are measured hourly with a blood-gas analyser. The blood pressure (systolic and diastolic) is measured with a probe in the aorta abdominalis. The heart freguency is recorded by means of a tachometer, which is disengaged from the pressure pulse. For the other measurements the heart must be firstly be opened in order that a probe can be inserted in the left ventricle (heart chamber) for the pressure measurements (dp/dt). The coronary blood flow is measured with a flowing probe in the left coronary artery (descendens).

[2] = tested on: Isolated, perfused guinea pig heart; experiment: Isolated, perfused guinea pig heart according to Langendorff (Test B); conditions: Cavia porcellus, infusion, 10^-10 to 10^-6 M, pH 7.3, 37° C., read-out: CBF IC50
Protocol: B. Isolated, perfused guinea pig heart according to Langendorff: Guinea pigs weighing approximately 400 g are narcotized with Urethan (1 g/kg i.p.) and the heart is removed rapidly. […] A Miller microtip catheter pressure transducer (PC-350) is inserted in the left heart chamber in order to measure the left ventricular pressure. The total coronary artery flow is collected in a funnel and measured with an electro magnetic flow meter. All measurement parameters are recorded on a recording apparatus (Gould, Model 2800). The test begins after an adaptation of 45 minutes. Substances are infused with a velocity of 1% of the total coronary flow rate. A complete concentration-activity curve (10^-10 to 10^-6 M) is prepared for each substance.

T1 sequence (O35505 whole entry): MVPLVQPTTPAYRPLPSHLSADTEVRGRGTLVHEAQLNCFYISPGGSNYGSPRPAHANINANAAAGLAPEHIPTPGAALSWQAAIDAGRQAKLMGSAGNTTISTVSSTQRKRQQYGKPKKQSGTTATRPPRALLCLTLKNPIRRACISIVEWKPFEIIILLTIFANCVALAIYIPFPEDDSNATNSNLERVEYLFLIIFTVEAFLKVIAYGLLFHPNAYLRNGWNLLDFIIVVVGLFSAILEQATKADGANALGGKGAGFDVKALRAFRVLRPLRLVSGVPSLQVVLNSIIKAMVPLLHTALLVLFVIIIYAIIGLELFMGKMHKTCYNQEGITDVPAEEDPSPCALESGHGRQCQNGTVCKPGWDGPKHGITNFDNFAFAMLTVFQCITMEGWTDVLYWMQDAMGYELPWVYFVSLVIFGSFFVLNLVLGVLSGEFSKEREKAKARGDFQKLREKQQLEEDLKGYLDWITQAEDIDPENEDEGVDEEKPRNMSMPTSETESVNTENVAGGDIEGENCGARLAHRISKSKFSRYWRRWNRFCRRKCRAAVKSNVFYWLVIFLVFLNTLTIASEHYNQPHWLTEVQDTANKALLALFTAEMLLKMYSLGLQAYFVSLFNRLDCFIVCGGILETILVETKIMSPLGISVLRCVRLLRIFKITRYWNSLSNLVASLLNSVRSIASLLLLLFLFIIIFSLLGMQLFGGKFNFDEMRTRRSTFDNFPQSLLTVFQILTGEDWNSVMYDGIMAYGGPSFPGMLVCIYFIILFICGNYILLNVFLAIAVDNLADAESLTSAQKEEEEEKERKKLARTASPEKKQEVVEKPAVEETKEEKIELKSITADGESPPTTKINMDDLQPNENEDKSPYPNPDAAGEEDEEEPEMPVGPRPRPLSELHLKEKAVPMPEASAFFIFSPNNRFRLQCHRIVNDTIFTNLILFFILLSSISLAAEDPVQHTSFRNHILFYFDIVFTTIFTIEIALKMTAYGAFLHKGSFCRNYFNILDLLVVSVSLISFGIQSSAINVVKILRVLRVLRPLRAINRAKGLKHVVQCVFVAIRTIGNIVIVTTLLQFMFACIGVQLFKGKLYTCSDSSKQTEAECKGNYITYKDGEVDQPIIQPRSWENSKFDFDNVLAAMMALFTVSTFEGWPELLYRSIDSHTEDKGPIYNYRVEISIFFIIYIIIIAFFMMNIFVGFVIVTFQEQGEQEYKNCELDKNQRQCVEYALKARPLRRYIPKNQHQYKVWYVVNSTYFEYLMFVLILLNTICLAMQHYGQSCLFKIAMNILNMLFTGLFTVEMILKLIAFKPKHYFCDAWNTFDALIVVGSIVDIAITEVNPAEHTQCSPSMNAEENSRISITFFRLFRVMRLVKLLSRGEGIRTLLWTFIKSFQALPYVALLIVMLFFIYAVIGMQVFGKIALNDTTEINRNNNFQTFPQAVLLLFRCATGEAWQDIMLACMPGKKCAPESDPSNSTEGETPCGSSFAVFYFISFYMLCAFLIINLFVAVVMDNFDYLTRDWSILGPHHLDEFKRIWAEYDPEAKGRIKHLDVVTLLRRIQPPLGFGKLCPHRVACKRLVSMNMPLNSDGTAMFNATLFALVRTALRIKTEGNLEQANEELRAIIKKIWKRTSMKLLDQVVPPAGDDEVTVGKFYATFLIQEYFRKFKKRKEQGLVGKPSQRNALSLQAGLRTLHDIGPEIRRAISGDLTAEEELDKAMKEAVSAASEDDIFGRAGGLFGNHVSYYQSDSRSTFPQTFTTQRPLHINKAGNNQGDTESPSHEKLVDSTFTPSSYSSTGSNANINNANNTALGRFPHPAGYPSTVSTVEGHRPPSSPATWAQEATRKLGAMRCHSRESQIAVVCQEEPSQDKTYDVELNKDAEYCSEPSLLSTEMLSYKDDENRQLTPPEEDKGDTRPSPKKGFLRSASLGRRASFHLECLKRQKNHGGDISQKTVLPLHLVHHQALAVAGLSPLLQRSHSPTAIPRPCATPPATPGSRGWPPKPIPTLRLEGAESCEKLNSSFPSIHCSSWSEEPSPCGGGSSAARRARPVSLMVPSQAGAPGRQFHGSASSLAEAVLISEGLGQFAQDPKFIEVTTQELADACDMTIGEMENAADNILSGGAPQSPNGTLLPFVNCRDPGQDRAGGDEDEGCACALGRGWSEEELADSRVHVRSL

Row | IC50 [1] [nM] | IC50 [2] [nM] | Structure (SMILES) | BP Δ % (narcotized dog; 0.03 mg/kg i.v.) [%] | CBF Δ % (narcotized dog; 0.03 mg/kg i.v.) [%] | HR Δ % (narcotized dog; 0.03 mg/kg i.v.) [%] | dp/dt Δ % (narcotized dog; 0.03 mg/kg i.v.) [%] | BP Δ % (narcotized dog; 0.3 mg/kg i.v.) [%] | CBF Δ % (narcotized dog; 0.3 mg/kg i.v.) [%] | HR Δ % (narcotized dog; 0.3 mg/kg i.v.) [%] | dp/dt Δ % (narcotized dog; 0.3 mg/kg i.v.) [%] | BP Δ % (narcotized dog; 1 mg/kg i.v.) [%] | CBF Δ % (narcotized dog; 1 mg/kg i.v.) [%] | HR Δ % (narcotized dog; 1 mg/kg i.v.) [%] | dp/dt Δ % (narcotized dog; 1 mg/kg i.v.) [%]
1 | 34 | 28 | CCCCCCCCCCCCn1c(CCCCCCCN(C)CC[C@@]2(OC(=O)COC)CCc3cc(F)ccc3[C@@H]2C(C)C)nc2ccccc21 [F, [1S,2S]-2-[2-[[7-(1-dodecyl-2-benzimidazolyl)heptyl]methylamino]ethyl]-6-fluoro-1,2,3,4-tetrahydro-1-isopropyl-2-naphthyl methoxyacetate] | – | – | – | – | -3 | 46 | -2 | 4 | – | – | – | –
2 | 28 | 2.4 | COCC(=O)O[C@]1(CCN(C)CCCCCc2nc3ccccc3s2)CCc2cc(F)ccc2[C@@H]1C(C)C [H, [1S,2S]-2-[2-[[5-(2-benzthiazolyl)pentyl]methylamino]ethyl]-6-fluoro-1,2,3,4-tetrahydro-1-isopropyl-2-naphthyl methoxyacetate] | – | – | – | – | -28 | 146 | -41 | 25 | – | – | – | –
3 | 100 | 22 | COCC(=O)O[C@]1(CCN(C)Cc2ccc(Cc3nc4ccccc4[nH]3)cc2)CCc2cc(F)ccc2[C@@H]1C(C)C [I, [1S,2S]-6-fluoro-1,2,3,4-tetrahydro-1-isopropyl-2-[2-[[4-[(2-benzimidazolyl)methyl]benzyl]methylamino]ethyl]-2-naphthyl methoxyacetate] | – | – | – | – | -14 | 82 | -9 | 18 | – | – | – | –
4 | 150 | 1.8 | COCC(=O)O[C@]1(CCN(C)CCCc2nc(-c3ccccc3)c(-c3ccccc3)n2C)CCc2cc(F)ccc2[C@@H]1C(C)C [G, [1S,2S]-6-fluoro-1,2,3,4-tetrahydro-1-isopropyl-2-[2-[[3-(1-methyl-4,5-diphenylimidazol-2-yl)propyl]methylamino]ethyl]-2-naphthyl methoxyacetate] | – | – | – | – | -20 | 96 | -15 | 11 | – | – | – | –

The remaining lines, values behind:

Row | Structure (SMILES) | IC50 [1] [nM] | IC50 [2] [nM] | BP Δ % (narcotized dog; 0.03 mg/kg i.v.) [%] | CBF Δ % (narcotized dog; 0.03 mg/kg i.v.) [%] | HR Δ % (narcotized dog; 0.03 mg/kg i.v.) [%] | dp/dt Δ % (narcotized dog; 0.03 mg/kg i.v.) [%] | BP Δ % (narcotized dog; 0.3 mg/kg i.v.) [%] | CBF Δ % (narcotized dog; 0.3 mg/kg i.v.) [%] | HR Δ % (narcotized dog; 0.3 mg/kg i.v.) [%] | dp/dt Δ % (narcotized dog; 0.3 mg/kg i.v.) [%] | BP Δ % (narcotized dog; 1 mg/kg i.v.) [%] | CBF Δ % (narcotized dog; 1 mg/kg i.v.) [%] | HR Δ % (narcotized dog; 1 mg/kg i.v.) [%] | dp/dt Δ % (narcotized dog; 1 mg/kg i.v.) [%]
5 | COCC(=O)O[C@]1(CCN(C)CCCCCCn2c(=O)[nH]c3ccccc32)CCc2cc(F)ccc2[C@@H]1C(C)C [D, [1S,2S]-6-fluoro-1,2,3,4-tetrahydro-1-isopropyl-2-[2-[methyl-[6-(2-oxo-1-benzimidazolinyl)hexyl]amino]ethyl]-2-naphthyl methoxyacetate] | 32 | 1.1 | -21 | 22 | -25 | 6 | – | – | – | – | – | – | – | –
6 | CCCCNC(=O)O[C@]1(CCN(C)CCCCCc2nc3ccccc3n2C)CCc2cc(F)ccc2[C@@H]1C(C)C [C, [1S,2S]-6-fluoro-1,2,3,4-tetrahydro-1-isopropyl-2-[2-[methyl-[5-(1-methyl-2-benzimidazolyl)pentyl]amino]ethyl]-2-naphthyl butylcarbamate] | 210 | 17 | – | – | – | – | -16 | 62 | -9 | 15 | – | – | – | –
7 | COCC(=O)O[C@]1(CC[N+](C)([O-])CCCc2nc3ccccc3[nH]2)CCc2cc(F)ccc2[C@@H]1C(C)C (stereo partly drawn) [E, [1S,2S]-2-[2-[[3-(2-benzimidazolyl)propyl]methyl-N-oxidoamino]ethyl]-6-fluoro-1,2,3,4-tetrahydro-1-isopropyl-2-naphthyl methoxyacetate] | 1000 | 10000 | – | – | – | – | – | – | – | – | -8 | 57 | 0 | 10
8 | CC(C)[C@H]1c2ccc(F)cc2CC[C@]1(O)CCN(C)CCCCCCCc1nc2ccccc2[nH]1 [B, [1S,2S]-2-[2-[[7-(2-benzimidazolyl)heptyl]methylamino]ethyl]-6-fluoro-1,2,3,4-tetrahydro-1-isopropyl-2-naphthalenol] | 630 | 50 | – | – | – | – | -6 | 36 | 0 | 8 | – | – | – | –
9 | COCC(=O)O[C@]1(CCN(C)CCCc2nc3ccccc3[nH]2)CCc2cc(F)ccc2[C@@H]1C(C)C [A, [1S,2S]-2-[2-[[3-(2-benzimidazolyl)propyl]methylamino]ethyl]-6-fluoro-1,2,3,4-tetrahydro-1-isopropyl-2-naphthyl methoxyacetate] | 130 | 47 | – | – | – | – | -22 | 86 | -7 | 25 | – | – | – | –
